Assay results taken from patent publication US10696692B2, “Amido-benzyl sulfone and sulfoxide derivates” (Forma TM, LLC, priority 2012, dated 2020).
Like-named read-outs stand apart in the source and are kept apart here.

What was measured:
NAMPT = NAMPT (Homo sapiens (Human), UniProt P43490); assay: Assay 1: Biochemical Inhibition Assay (NAMPT enzymatic reaction, NMN quantified by mass spectrometry); conditions: read-out: Biochemical (IC50);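 note: recombinant His-tagged human NAMPT preincubated with compound 15 min, then reacted 30 min at rt with 1 µM NAM, 100 µM PRPP, 2.5 mM ATP, NMN product read by RapidFire MS, normalized to L-Cystathionine internal standard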
NAMPT, sequence (P43490 whole entry): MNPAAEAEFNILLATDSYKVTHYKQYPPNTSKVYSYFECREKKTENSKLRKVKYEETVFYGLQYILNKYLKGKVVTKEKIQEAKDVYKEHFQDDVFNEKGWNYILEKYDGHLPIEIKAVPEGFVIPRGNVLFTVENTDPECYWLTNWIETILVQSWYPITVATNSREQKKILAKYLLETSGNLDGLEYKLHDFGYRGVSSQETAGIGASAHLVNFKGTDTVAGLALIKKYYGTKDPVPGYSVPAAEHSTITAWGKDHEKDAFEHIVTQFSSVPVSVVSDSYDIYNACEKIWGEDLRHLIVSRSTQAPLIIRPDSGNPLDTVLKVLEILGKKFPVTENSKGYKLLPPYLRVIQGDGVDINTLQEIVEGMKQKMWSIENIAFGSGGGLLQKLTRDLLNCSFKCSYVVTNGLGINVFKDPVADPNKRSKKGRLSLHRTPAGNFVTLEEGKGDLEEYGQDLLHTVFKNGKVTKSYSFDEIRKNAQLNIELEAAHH

A2780 cells = assay: Assay 2: In-Vitro Cell Proliferation Assay (A2780 cells, SRB readout, 72 hours); type: cell-based; conditions: A2780 cells, 72 hours, SRB, read-out: Cell Proliferation (IC50);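 note: viable cells counted via sulforhodamine B staining, absorbance at 570 nm, after 72 h exposure at 37 °C, DMSO 0.1% as control, media-only background subtracted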

Compound | IC50 (NAMPT) [nM] | IC50 (A2780 cells; Homo sapiens, A2780, 72 h) [nM] | IC50 (A2780 cells) [nM]
O=C(NCc1ccc(S(=O)(=O)N2CCC3(CNC3)C2)cc1)c1ccc2nccn2c1 [Example 215, N-[[4-(2,6-diazaspiro[3.4]octan-6-ylsulfonyl)phenyl]methyl] imidazo[1,2-a]pyridine-6-carboxamide] | 81.5 | 166 | –
C[C@@H]1CN(S(=O)(=O)c2ccc(CNC(=O)c3ccc4nccn4c3)cc2)C[C@H](C)N1 [Example 60, cis-Imidazo[1,2-a]pyridine-6-carboxylic acid 4-((3R,5S)-3,5-dimethyl-piperazine-1-sulfonyl)-benzylamide] | 29.4 | 15.2 | –
O=C(NCc1ccc(S(=O)(=O)N2CCC3(CCNC3=O)C2)cc1)c1ccc2nccn2c1 (stereo not drawn) [Example 217, N-[[4-[(1-oxo-2,7-diazaspiro[4.4]nonan-7-yl)sulfonyl]phenyl]methyl] imidazo[1,2-a]pyridine-6-carboxamide] | 16 | 10.1 | –
NC1CCN(S(=O)(=O)c2ccc(CNC(=O)c3ccc4nccn4c3)cc2)CC1 [Example 317, N-[[4-[(4-amino-1-piperidyl)sulfonyl]phenyl]methyl]imidazo[1,2-a]pyridine-6-carboxamide] | 82.1 | 87.7 | –
CN1CCC([S+]([O-])c2ccc(CNC(=O)N3Cc4ccncc4C3)cc2)CC1 (stereo not drawn) [Example 372, N-[[4-[(1-methyl-4-piperidyl)sulfinyl]phenyl]methyl]-1,3-dihydropyrrolo[3,4-c]pyridine-2-carboxamide] | 57.6 | 61.2 | –
CC(C)(C)OC(=O)N1CCCC12CCN(S(=O)(=O)c1ccc(CNC(=O)c3ccc4nccn4c3)cc1)CC2 [Example 125, 8-(4-{[(Imidazo[1,2-a]pyridine-6-carbonyl)-amino]-methyl}-benzenesulfonyl)-1,8-diaza-spiro[4.5]decane-1-carboxylic acid tert-butyl ester] | 11.2 | 1.37 | –
O=C(NCc1ccc(S(=O)(=O)N2CC3CCC(C2)O3)cc1)c1cnc2[nH]ncc2c1 [Example 27, 1H-Pyrazolo[3,4-b]pyridine-5-carboxylic acid 4-(8-oxa-3-aza-bicyclo[3.2.1]octane-3-sulfonyl)-benzylamide] | 142 | 132 | –
O=C(NCc1ccc(S(=O)(=O)[C@@H]2CCOC2)cc1)c1cc2ccncc2o1 [Example 232, N-[[4-[(3R)-tetrahydrofuran-3-yl]sulfonylphenyl]methyl]furo [2,3-c]pyridine-2-carboxamide] | 175 | 445 | –
O=C(NCc1ccc([S+]([O-])C2CCN(C3CCOCC3)CC2)cc1)c1ccc2nccn2c1 (stereo not drawn) [Example 384, N-[[4-[(1-tetrahydropyran-4-yl-4-piperidyl)sulfinyl]phenyl]methyl]imidazo[1,2-a] pyridine-6-carboxamide] | 36.2 | 39.1 | –
CN1CCCC12CN(S(=O)(=O)c1ccc(CNC(=O)c3ccc4nccn4c3)cc1)C2 [Example 273, N-[[4-[(5-methyl-2,5-diazaspiro[3.4]octan-2-yl)sulfonyl)phenyl]methyl] imidazo[1,2-a]pyridine-6-carboxamide] | 25.4 | 10.4 | –
O=C(NCc1ccc(S(=O)(=O)N2CCC3(CCNCC3)CC2)cc1)c1ccc2nccn2c1 [Example 324, N-[[4-(3,9-diazaspiro[5.5]undecan-3-ylsulfonyl)phenyl]methyl] imidazo[1,2-a]pyridine-6-carboxamide] | 19.2 | 24.8 | –
NC1CCN(S(=O)(=O)c2ccc(CNC(=O)c3cc4ccncc4s3)cc2)CC1 [Example 36, Thieno[2,3-c]pyridine-2-carboxylic acid 4-(4-amino-piperidine-1-sulfonyl)-benzylamide] | 11.3 | 46.3 | –
O=C(NCc1ccc(S(=O)(=O)C2CCCOC2)cc1)c1cnc2[nH]ncc2c1 (racemic) [Example 155, 1H-Pyrazolo[3,4-b]pyridine-5-carboxylic acid 4-(tetrahydro-pyran-3-sulfonyl)-benzylamide] | 219 | 176 | –
CC(C)(C)OC(=O)N1C[C@H]2CCN(S(=O)(=O)c3ccc(CNC(=O)c4ccc5nccn5c4)cc3)[C@H]2C1 (racemic) [Example 135, cis-1-(4-{[(Imidazo[1,2-a]pyridine-6-carbonyl)-amino]-methyl}-benzenesulfonyl)-hexahydro-pyrrolo[3,4-b]pyrrole-5-carboxylic acid tert-butyl ester] | 20.2 | 5.52 | –
O=C(NCc1ccc(S(=O)(=O)N2CC3CC2CC3F)cc1)c1ccc2nccn2c1 (racemic) [Example 164, cis-Imidazo[1,2-alpyridine-6-carboxylic acid 4-(5-fluoro-2-aza-bicyclo[2.2.1]heptane-2-sulfonyl)-benzylamide] | 8.1 | 12.4 | –
CCCN1CCC([S@+]([O-])c2ccc(CNC(=O)c3cc4ccncc4o3)cc2)CC1 [Example 383, N-[[4-[(S)-(1-propyl-4-piperidyl)sulfinyl]phenyl]methyl]furo[2,3-c]pyridine-2-carboxamide] | 35.7 | – | 6.46
CC(=O)N1CCC(S(=O)(=O)c2ccc(CNC(=O)c3cnc4nccn4c3)cc2)CC1 [Example 229, N-[[4-[(1-acetyl-4-piperidyl)sulfonyl]phenyl]methyl]imidazo[1,2-a]pyrimidine-6-carboxamide] | 5.12 | 527 | –

Compound | IC50 (NAMPT) [nM] | IC50 (A2780 cells; Homo sapiens, A2780, 72 h) [nM] | IC50 (A2780 cells) [nM]
CN1CCC2(C1)CN(S(=O)(=O)c1ccc(CNC(=O)c3cc4ccncc4o3)cc1)C2 [Example 197, N-[[4-[(6-methyl-2,6-diazaspiro[3.4]octan-2-yl)sulfonyl]phenyl]methyl] furo[2,3-c]pyridine-2-carboxamide] | 2.83 | 16.8 | –
O=C(NCc1ccc(S(=O)(=O)N2CCC[C@@H](O)C2)cc1)c1ccc2nccn2c1 [Example 53, Imidazo[1,2-a]pyridine-6-carboxylic acid 4-((R)-3-hydroxy-piperidine-1-sulfonyl)-benzylamide] | 16.9 | 22.6 | –
C[C@@H]1CN(S(=O)(=O)c2ccc(CNC(=O)c3cc4ccncc4s3)cc2)C[C@H](C)N1 [Example 46, Thieno[2,3-c]pyridine-2-carboxylic acid 4-((3R,5S)-3,5-dimethyl-piperazine-1-sulfonyl)-benzylamide] | 43.5 | 4.4 | –
O=C(NCc1ccc(S(=O)(=O)N2CCN(CC(F)(F)F)CC2)cc1)c1ccc2nccn2c1 [Example 25, Imidazo[1,2-a]pyridine-6-carboxylic acid 4-[4-(2,2,2-trifluoro-ethyl)-piperazine-1-sulfonyl]-benzylamide] | 24.2 | 10.5 | –
CC1(O)CCN(S(=O)(=O)c2ccc(CNC(=O)c3ccc4nccn4c3)cc2)CC1 [Example 145, Imidazo[1,2-a]pyridine-6-carboxylic acid 4-(4-hydroxy-4-methyl-piperidine-1-sulfonyl)-benzylamide] | 28.4 | 12.5 | –
CC(=O)N1CCCC(S(=O)(=O)c2ccc(CNC(=O)c3cnc4[nH]ncc4c3)cc2)C1 (stereo not drawn) [Example 347, N-[[4-[(1-acetyl-3-piperidyl)sulfonyl]phenyl]methyl]-1H-pyrazolo[3,4-b]pyridine-5-carboxamide] | 381 | 640 | –
CN1CCN(C(=O)C2CCN(S(=O)(=O)c3ccc(CNC(=O)c4ccc5nccn5c4)cc3)CC2)CC1 [Example 109, Imidazo[1,2-a]pyridine-6-carboxylic acid 4-[4-(4-methyl-piperazine-1-carbonyl)-piperidine-1-sulfonyl]-benzylamide] | 2.7 | 3.9 | –
CC(C)CN1CCC([S+]([O-])c2ccc(CNC(=O)c3cc4cnccc4[nH]3)cc2)CC1 (stereo not drawn) [Example 191, N-[[4-[(1-isobutyl-4-piperidyl)sulfinyl]phenyl]methyl]-1H-pyrrolo[3,2-c]pyridine-2-carboxamide] | 26.3 | 5.6 | –
O=C(NCc1ccc(S(=O)(=O)C2CCCOC2)cc1)c1ccc2nccn2c1 (stereo not drawn) [Example 276, N-[(4-tetrahydropyran-3-ylsulfonylphenyl)methyl] imidazo[1,2-a]pyridine-6-carboxamide] | 32.9 | 19.9 | –
O=C(NCc1ccc(S(=O)(=O)N2CCCC(O)C2)cc1)c1cc2ccncc2o1 (racemic) [Example 34, Furo[2,3-c]pyridine-2-carboxylic acid 4-(3-hydroxy-piperidine-1-sulfonyl)-benzylamide] | 25.7 | 51.9 | –
O=C(NCc1ccc(S(=O)(=O)C2CCN(C3COC3)CC2)cc1)c1cnc2nccn2c1 [Example 251, N-[[4-[[1-(oxetan-3-yl)-4-piperidyl]sulfonyl]phenyl]methyl]imidazo[1,2-a] pyrimidine-6-carboxamide] | 4.13 | – | 121
O=C(NCc1ccc(S(=O)(=O)N2CCOCC2)cc1)c1cnc2[nH]ncc2c1 [Example 9, 1H-Pyrazolo[3,4-b]pyridine-5-carboxylic acid 4-(morpholine-4-sulfonyl)-benzylamide] | 105 | 278 | –
O=C(NCc1ccc(S(=O)(=O)N2C[C@H]3C[C@@H]2C3)cc1)c1ccc2nccn2c1 [Example 159, Imidazo[1,2-a]pyridine-6-carboxylic acid 4-(2-aza-bicyclo[2.1.1]hexane-2-sulfonyl)-benzylamide] | 12 | 13.3 | –
cis-Imidazo[1,2- a]pyridine-6-carboxylic acid 4-[(3aR,6aS)- (tetrahydro-furo[3,4- c]pyrrol-5-yl)sulfonyl]- benzylamide [Example 71] | 16.7 | – | 6.4
O=C(NCc1ccc(S(=O)(=O)N2CCC3(CCNCC3)C2)cc1)c1ccc2nccn2c1 [Example 256, N-[[4-(2,8-diazaspiro[4.5]decan-2-ylsulfonyl)phenyl]methyl] imidazo[1,2-a]pyridine-6-carboxamide] | 53.7 | 66.9 | –
O=C(NCc1ccc(S(=O)(=O)N2CCCCC2)cc1)c1ccc2ncnn2c1 [Example 45, [1,2,4]Triazolo[1,5-a]pyridine-6-carboxylic acid 4-(piperidine-1-sulfonyl)-benzylamide] | 17.2 | 1000 | –
